Values quoted from earlier work, collected in patent US8454566B2, “Methods and compositions for the inhibition of biofilms on medical devices” (Medtronic MiniMed, Inc., priority 2003, dated 2013).

Target: avidin (Gallus gallus, UniProt P02701)
Settings: avidin tetramer binds 4 biotin molecules in solution, noncovalent interaction

Chain of avidin (P02701 25-152): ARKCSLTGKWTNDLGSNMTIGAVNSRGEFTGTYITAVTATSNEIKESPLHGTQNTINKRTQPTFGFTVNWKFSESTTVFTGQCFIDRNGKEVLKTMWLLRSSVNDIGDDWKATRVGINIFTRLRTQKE

O=C(O)CCCC[C@@H]1SC[C@@H]2NC(=O)N[C@@H]21 [biotin]
binding constant: about 10^15 M^−1
